Assay results reported in article PMC7391777, “Inhibition of acetyl-CoA carboxylase by spirotetramat causes growth arrest and lipid depletion in nematodes” (Scientific Reports, 2020).

Target: T1, C. elegans ACC (POD-2) (Caenorhabditis elegans, UniProt H2L0M0)
T1 construct: native enzyme in total protein extract of C. elegans pellet, not purified
Assay: ACC activity in total protein extract, radiolabeled sodium bicarbonate
Type: biochemical
Conditions: total protein extract of C. elegans

T1 sequence (H2L0M0 1-2165): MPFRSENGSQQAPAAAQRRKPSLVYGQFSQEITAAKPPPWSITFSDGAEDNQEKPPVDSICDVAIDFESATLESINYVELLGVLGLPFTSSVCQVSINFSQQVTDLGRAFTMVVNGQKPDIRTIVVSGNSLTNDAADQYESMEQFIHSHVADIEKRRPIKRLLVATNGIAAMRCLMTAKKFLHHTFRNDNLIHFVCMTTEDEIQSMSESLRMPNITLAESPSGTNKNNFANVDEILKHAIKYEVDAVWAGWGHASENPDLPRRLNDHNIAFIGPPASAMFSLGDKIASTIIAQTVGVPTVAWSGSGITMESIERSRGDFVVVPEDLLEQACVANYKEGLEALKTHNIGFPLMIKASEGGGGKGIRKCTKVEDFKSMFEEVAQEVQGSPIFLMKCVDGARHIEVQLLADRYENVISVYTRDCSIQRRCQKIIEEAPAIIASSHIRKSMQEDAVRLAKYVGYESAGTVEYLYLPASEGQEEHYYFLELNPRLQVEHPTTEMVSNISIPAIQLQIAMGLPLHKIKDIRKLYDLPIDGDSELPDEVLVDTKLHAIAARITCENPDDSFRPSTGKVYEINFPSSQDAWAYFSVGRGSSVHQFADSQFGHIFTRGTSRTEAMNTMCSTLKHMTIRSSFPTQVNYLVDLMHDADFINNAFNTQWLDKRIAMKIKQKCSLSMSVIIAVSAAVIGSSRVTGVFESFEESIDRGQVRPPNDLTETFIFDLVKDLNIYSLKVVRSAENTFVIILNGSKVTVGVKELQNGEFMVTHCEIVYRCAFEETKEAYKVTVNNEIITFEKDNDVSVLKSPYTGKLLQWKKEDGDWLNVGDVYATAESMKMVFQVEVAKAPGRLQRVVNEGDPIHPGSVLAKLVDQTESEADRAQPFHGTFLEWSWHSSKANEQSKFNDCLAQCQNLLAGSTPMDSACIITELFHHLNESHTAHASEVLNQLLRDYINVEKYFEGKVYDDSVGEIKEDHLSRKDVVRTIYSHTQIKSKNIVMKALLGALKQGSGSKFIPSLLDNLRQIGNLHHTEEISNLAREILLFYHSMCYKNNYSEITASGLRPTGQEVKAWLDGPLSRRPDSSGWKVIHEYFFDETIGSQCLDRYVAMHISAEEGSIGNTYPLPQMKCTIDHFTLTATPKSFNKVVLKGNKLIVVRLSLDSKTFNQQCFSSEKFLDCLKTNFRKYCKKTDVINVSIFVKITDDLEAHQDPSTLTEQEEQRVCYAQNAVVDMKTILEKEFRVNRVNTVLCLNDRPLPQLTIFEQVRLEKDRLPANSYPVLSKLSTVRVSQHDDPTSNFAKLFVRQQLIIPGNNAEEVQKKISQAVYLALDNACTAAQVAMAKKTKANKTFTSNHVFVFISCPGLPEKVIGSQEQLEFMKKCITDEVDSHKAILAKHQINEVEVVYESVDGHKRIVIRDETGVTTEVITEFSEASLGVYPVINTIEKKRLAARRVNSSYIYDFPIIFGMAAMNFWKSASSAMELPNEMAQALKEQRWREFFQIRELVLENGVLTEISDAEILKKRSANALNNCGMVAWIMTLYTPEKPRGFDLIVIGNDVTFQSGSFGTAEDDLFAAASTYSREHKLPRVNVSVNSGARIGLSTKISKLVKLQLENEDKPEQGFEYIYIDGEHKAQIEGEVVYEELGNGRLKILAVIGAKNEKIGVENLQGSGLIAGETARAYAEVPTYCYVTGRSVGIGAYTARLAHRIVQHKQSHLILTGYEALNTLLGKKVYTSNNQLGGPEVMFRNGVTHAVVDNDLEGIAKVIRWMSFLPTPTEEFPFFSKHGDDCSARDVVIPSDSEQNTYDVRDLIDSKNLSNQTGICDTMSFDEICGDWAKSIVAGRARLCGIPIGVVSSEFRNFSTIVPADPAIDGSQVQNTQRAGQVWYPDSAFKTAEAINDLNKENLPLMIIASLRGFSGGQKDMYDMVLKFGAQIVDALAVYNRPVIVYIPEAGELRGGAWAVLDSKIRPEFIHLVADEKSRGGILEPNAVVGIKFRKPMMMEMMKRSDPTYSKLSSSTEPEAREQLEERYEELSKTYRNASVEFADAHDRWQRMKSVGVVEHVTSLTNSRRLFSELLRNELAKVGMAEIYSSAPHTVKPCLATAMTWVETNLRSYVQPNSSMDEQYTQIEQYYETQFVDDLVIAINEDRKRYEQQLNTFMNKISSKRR

## COC1CCC2(CC1)NC(=O)C(c1cc(C)ccc1C)=C2O (stereo not shown) [SPT-enol]
  IC50: 50 µM
